Legend:
HIV-1 NL43 = test: HIV inhibition assay in P4C5 HeLa cells (β-gal activity); type: cell-based; conditions: CXCR4-tropic strain
HIV-1 NLAD8 = test: as above; type: cell-based; conditions: CCR5-tropic virus
VSV-G pseudotyped virus = type: cell-based, HIV (VSV)

Cc1ccnc2c1NC(=O)c1cccnc1N2C1CC1 [Nevirapine, reference compound]
blocks all viruses tested: inhibition of infection with HIV-1 NL43 (HIV-1 NL43) | inhibition of infection with HIV-1 NLAD8 (HIV-1 NLAD8) | inhibition of infection with VSV-G pseudotyped virus (VSV-G pseudotyped virus)

Source: patent US9902761B2, “Polypeptides, nucleic acids and uses thereof” (AGENCY FOR SCIENCE, TECHNOLOGY AND RESEARCH, priority 2013, dated 2018)
